Structures can show the parent of a compound that is named as a salt.
Legend:
[1] = system: non-laminopathic Werner syndrome cells; assay: Misshapen nuclei in Werner syndrome cells; format: cell-based, human
Text: FIG. 10: Remodelin rescues nuclear shape of aged MRC5 cells but not WS cells in a dose dependent manner. A) Misshapen nuclei observed by DAPI staining in MRC5 aged cells in culture, at population doubling 44 (PD44) were rescued by Remodelin. B) Quantification of misshapen nuclei after increasing concentrations of Remodelin (mean of three independent experiments±s.e.m.). C) DAPI staining of non-laminopathic Werner Syndrome cells (WS) showing no nuclear shape improvement upon Remodelin treatment. D) Cell Profiler quantification of misshapen nuclei (mean of three independent experiments±s.d. n>273). Scale bars: 50 μm.
U2OS and SaOS-2 osteosarcoma cells, HeLa cervical cancer cells, A431 melanoma cells, NCI-SNU5 gastric cancer cells, MRC-5 lung fibroblast cells and Werner syndrome patient-derived SV40 fibroblast cells were grown in Dulbecco's modified Eagle medium (DMEM, Sigma-Aldrich) supplemented with 10% fetal bovine serum (BioSera), 2 mM L-glutamine, 100 U per ml penicillin, 100 μg ml^−1 streptomycin. Normal skin primary fibroblasts GM03440 and Hutchinson Gilford Progeria Syndrome (HGPS) skin primary fibroblasts AG11498 and AG06297 were purchased from Coriell Cell Repositories and used between passage number 9-12 and 20-23 respectively. Cells were grown in DMEM supplemented as above. […] Cells were analysed 48 to 72 hours after transfection.

tubulin in U2OS cells = assay: Analysis of soluble or polymerised tubulin; format: cell-based, human; conditions: 5 μM Remodelin 16 hours
Experimental: U2OS cells pre-treated with 5 μM Remodelin for 16 hours or with 10 μM nocodazole for 8 hours, were lysed in MT Stabilization Buffer (MSB) (85 mM PIPES [pH 6.9], 1 mM EGTA, 1 mM MgCl2, 2M glycerol, 0.5% Triton with 4 μg/ml Taxol). Lysates were kept at 4° C. for 2 minutes and then centrifuged for 10 minutes at 13,000 rpm. Supernatants, representing the soluble fraction of proteins, were transferred to new tubes, and Laemmli buffer was added. Pellets, representing the polymerized fraction of proteins, were washed once in MSB without Triton, and then resuspended in Laemmli buffer. Equal amounts of lysate were loaded on a gradient gel.

siLMNA cells = assay: Golgi apparatus integrity (anti-Giantin) in siLMNA cells; format: cell-based, human
Text: FIG. 13: Inhibiting NAT10 acetyltransferase activity modifies microtubule organisation to rescue nuclear shape defects. A) Microtubule network visualisation by inverted IF pictures of α-Tubulin. B) Nuclear shape visualisation after treating cells with microtubule or actin cytoskeleton disrupting agents. C) Visualisation of nuclear shape (DAPI) and Golgi (anti-Giantin) integrity in siLMNA cells. D) Fractionation of polymerised (P) and soluble (S) tubulin upon Remodelin or nocodazole (Nocod.) treatment. […] Right: quantification of cells with the indicated patterns (means of three independent experiments with n>103±s.e.m.). F) Laminopathic cells have enlarged, misshapen nuclei associated with disorganized chromatin structure. Upon Remodelin treatment, NAT10 acetyltransferase activity is inhibited, leading to disruption of microtubule anchorage at the centrosome and release of microtubule forces on the nuclear envelope. This release of mechanical stress on the nucleus contributes to nuclear shape rescue and global improvement of cellular fitness and chromatin organization. Scale bars: 20 μm.
Cells were washed with PBS and fixed for 20 minutes with 2% PFA in PBS. Cells were permeabilised for 5 minutes with PBS/0.2% Triton X-100, and blocked with PBS/0.2% Tween 20 (PBS-T) containing 5% BSA. […]

[2] = system: LMNA knock out (KO) U2OS cell line; assay: Cell growth of LMNA KO versus LMNA WT U2OS cells (IncuCyte ZOOM); format: cell-based, human; conditions: U2OS, CripR/Cas9 LMNA KO
Text: LMNA knock out (KO) U2OS cell line was engineered using CripR/Cas9 technology. The sensitivity of LMNA KO cells to Compound 2 was compared to cells expressing wild type LMNA (LMNA WT). Cell growth was monitored automatically over time using an IncuCyte ZOOM®. The results are shown in FIG. 21 which has been split into two graphs for easier reading of the curves.

HGPS fibroblasts = assay: Microarray gene expression, HGPS fibroblasts; format: cell-based, human
Experimental: (§1) Normal fibroblasts or HGPS fibroblasts were kept in culture for 12 population doublings with chronic treatment of 1 μM Compound 2 (top panels of FIG. 29) or transfected with siRNA against NAT10 for 3 days (bottom panels of FIG. 29). RNA was extracted and global gene expression was analysed by microarray. Volcano plots show a very high specificity of Compound 2 towards gene expression regulation of HGPS cells, with about 1000 genes affected more than 2 fold, whereas only 24 genes were affected in normal fibroblasts.

Normal fibroblasts = assay: Microarray gene expression, normal fibroblasts; format: cell-based, human; conditions: 1 μM, 12 population doublings
Experimental: as §1

[3] = Compound concentration in heart and muscles; format: in vivo; conditions: mice, end of the 14 days oral treatment
Text: Right panel of FIG. 24: measurement of Compound 2 concentration in heart and muscles of mice treated with the indicated dose, at the end of the 14 days treatment.

SMILES | misshapen nuclei of Werner syndrome cells [1] | tubulin assembly into polymers (tubulin in U2OS cells) | Golgi apparatus integrity (siLMNA cells) | cell growth inhibition of LMNA KO versus LMNA WT cells [2] | number of genes affected more than 2 fold (HGPS fibroblasts; HGPS fibroblasts, 1 μM, 12 population doublings) | genes misregulated in HGPS that are rescued (HGPS fibroblasts; HGPS vs normal fibroblasts, Venn diagrams) | number of genes affected (Normal fibroblasts) [genes] | compound concentration in heart and muscles [3]
N#Cc1ccc(-c2csc(NN=C3CCCC3)n2)cc1 [Compound 1, 4-(4-Cyanophenyl)-2-(2-cyclopentylidenehydrazinyl)thiazole] | no detectable effect on misshapen nuclei | did not affect Golgi apparatus integrity (FIG. 13C) or tubulin assembly into polymers | did not affect Golgi apparatus integrity |  |  |  |  | 
Clc1ccc(-c2csc(NN=C3CCCC3)n2)cc1 [Compound 2, 4-(4-Chlorophenyl)-2-(2-cyclopentylidenehydrazinyl)thiazole Hydrochloride Salt] |  |  |  | specificity of Compound 2 towards inhibiting cell growth of LMNA KO cells | about 1000 genes | about half of the genes that are misregulated in HGPS compared to normal fibroblasts are rescued | 24 | very high concentration of the compound in both heart and muscles
